According to patent US10738056B2 (Aduro BioTech, Inc., priority 2017, dated 2020):

Assays:
[1] = system: cGAS/STING pathway in THP1 cells; assay: THP1 cell-based cGAS/STING pathway activity assay (IRF-3-linked luciferase reporter); conditions: Homo sapiens, THP-1
Description: A cellular assay can be used to assess the compounds of the invention for their ability to inhibit the cGAS/STING pathway. Cells that express a luciferase-based reporter that is linked to IRF-3 activation are used to determine response as a function of compound concentration. Such an assay is described in Vincent et al., Nature Communications 2017, 8(1):750, doi: 10.1038/s41467-017-00833-9.
A cellular assay can be used to assess the compounds of the invention for their ability to inhibit the cGAS/STING pathway. Cells that express a luciferase-based reporter that is linked to IRF-3 activation are used to determine response as a function of compound concentration. Such an assay is described in Vincent et al., Nature Communications 2017, 8(1):750, doi: 10.1038/s41467-017-00833-9. Compounds of the invention were assessed using similar assay methods in a THP1 cell assay to generate IC50 values as provided in the following Table 16. In this table, activity level “A” indicates an IC50 value less than 20 μM, “B” indicates an IC50 value between 20 and 100 μM, and “C” indicates an IC50 value above the upper limit of the assay (100 μM), or where an IC50 value could not be generated from the data.

[2] = target: Human cGAS amino acids 155-522 (Homo sapiens (Human), UniProt Q8N884); assay: cGAS biochemical activity assay (ATP remaining, Kinase-Glo Max luminescence); conditions: human cGAS 155-522, ATP remaining (Kinase-Glo Max); read-out: cGAS IC50
Sequence of Human cGAS amino acids 155-522 (Q8N884 157-522): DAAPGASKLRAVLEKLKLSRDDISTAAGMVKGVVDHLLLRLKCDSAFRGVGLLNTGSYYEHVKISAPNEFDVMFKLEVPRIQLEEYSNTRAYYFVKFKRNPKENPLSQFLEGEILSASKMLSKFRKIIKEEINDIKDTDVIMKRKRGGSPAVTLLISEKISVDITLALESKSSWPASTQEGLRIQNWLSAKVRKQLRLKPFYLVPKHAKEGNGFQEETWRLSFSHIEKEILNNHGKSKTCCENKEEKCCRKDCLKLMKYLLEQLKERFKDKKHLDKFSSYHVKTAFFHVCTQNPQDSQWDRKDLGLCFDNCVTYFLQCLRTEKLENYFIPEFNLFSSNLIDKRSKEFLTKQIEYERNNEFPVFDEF

COc1cccc(NC(=O)c2c(C)[nH]c3c(-c4ccccc4)c(C(F)(F)F)nn3c2=O)n1 [Compound A1064, N-(6-methoxypyridin-2-yl)-5-methyl-7-oxo-3-phenyl-2-(trifluoromethyl)-4,7-dihydropyrazolo[1,5-a]pyrimidine-6-carboxamide]
IC50 [1]: 20 to 100 µM | IC50 [2]: < 20 µM

Cc1[nH]c2c(-c3ccccc3)c(C(F)(F)F)nn2c(=O)c1C1=N[C@@H](C(=O)O)[C@H](C)O1 [Compound C1213, (4R,5S)-5-methyl-2-(5-methyl-7-oxo-3-phenyl-2-(trifluoromethyl)-4,7-dihydropyrazolo[1,5-a]pyrimidin-6-yl)-4,5-dihydrooxazole-4-carboxylic acid]
IC50 [1]: 20 to 100 µM | IC50 [2]: < 20 µM

COc1ccnc(NC(=O)c2c(C)[nH]c3c(-c4ccccc4)c(C(F)(F)F)nn3c2=O)c1 [Compound A1063, N-(4-methoxypyridin-2-yl)-5-methyl-7-oxo-3-phenyl-2-(trifluoromethyl)-4,7-dihydropyrazolo[1,5-a]pyrimidine-6-carboxamide]
IC50 [1]: 20 to 100 µM | IC50 [2]: < 20 µM

Cc1[nH]c2c(-c3ccccc3)c(C(F)(F)F)nn2c(=O)c1-c1nnc(C2(C(F)(F)F)CC2)o1 [Compound D1038, 5-methyl-3-phenyl-2-(trifluoromethyl)-6-(5-(1-(trifluoromethyl)cyclopropyl)-1,3,4-oxadiazol-2-yl)pyrazolo[1,5-a]pyrimidin-7(4H)-one]
IC50 [1]: < 20 µM | IC50 [2]: < 20 µM

COC1CCCCC1NC(=O)c1c(C)[nH]c2c(-c3ccccc3)c(C(F)(F)F)nn2c1=O (single isomer, unassigned) [Compound A1089, N-(2-methoxycyclohexyl)-5-methyl-7-oxo-3-phenyl-2-(trifluoromethyl)-4,7-dihydropyrazolo[1,5-a]pyrimidine-6-carboxamide]
IC50 [1]: > 100 µM | IC50 [2]: < 20 µM

Cc1[nH]c2c(-c3ccccc3)c(C(F)(F)F)nn2c(=O)c1-c1nc(CO)co1 [Compound C1104, 6-(4-(hydroxymethyl)oxazol-2-yl)-5-methyl-3-phenyl-2-(trifluoromethyl)pyrazolo[1,5-a]pyrimidin-7(4H)-one]
IC50 [1]: > 100 µM | IC50 [2]: < 20 µM

Cc1[nH]c2c(-c3ccccc3)c(C(F)(F)F)nn2c(=O)c1-c1nc2ncccc2o1 [Compound C1030, 5-methyl-6-(oxazolo[4,5-b]pyridin-2-yl)-3-phenyl-2-(trifluoromethyl)pyrazolo[1,5-a]pyrimidin-7(4H)-one]
IC50 [1]: > 100 µM | IC50 [2]: < 20 µM

Cc1[nH]c2c(-c3ccccc3)c(C(F)(F)F)nn2c(=O)c1-c1nnc(-c2ccco2)o1 [Compound D1007, 6-(5-(furan-2-yl)-1,3,4-oxadiazol-2-yl)-5-methyl-3-phenyl-2-(trifluoromethyl)pyrazolo[1,5-a]pyrimidin-7(4H)-one]
IC50 [1]: 20 to 100 µM | IC50 [2]: > 250 µM

COc1cccc2oc(-c3c(C(=O)NCc4cc[nH]n4)[nH]c4c(-c5ccccc5)c(C(F)(F)F)nn4c3=O)nc12 [Compound C1245, N-((1H-pyrazol-3-yl)methyl)-6-(4-methoxybenzo[d]oxazol-2-yl)-7-oxo-3-phenyl-2-(trifluoromethyl)-4,7-dihydropyrazolo[1,5-a]pyrimidine-5-carboxamide]
IC50 [1]: > 100 µM | IC50 [2]: < 20 µM

COc1ccc(C(C)=O)c2oc(-c3c(C)[nH]c4c(-c5ccccc5)c(C(F)(F)F)nn4c3=O)nc12 [Compound C1111, 6-(7-acetyl-4-methoxybenzo[d]oxazol-2-yl)-5-methyl-3-phenyl-2-(trifluoromethyl)pyrazolo[1,5-a]pyrimidin-7(4H)-one]
IC50 [1]: < 20 µM | IC50 [2]: < 20 µM

Cc1[nH]c2c(-c3ccccc3)c(C(F)(F)F)nn2c(=O)c1-c1nnc(N2CCCC2)o1 [Compound D1014, 5-methyl-3-phenyl-6-(5-(pyrrolidin-1-yl)-1,3,4-oxadiazol-2-yl)-2-(trifluoromethyl)pyrazolo[1,5-a]pyrimidin-7(4H)-one]
IC50 [1]: > 100 µM | IC50 [2]: < 20 µM

Cc1[nH]c2c(-c3ccccc3)c(C(F)(F)F)nn2c(=O)c1C(=O)Nc1ccccc1Cl [Compound A1033, N-(2-chlorophenyl)-5-methyl-7-oxo-3-phenyl-2-(trifluoromethyl)-4,7-dihydropyrazolo[1,5-a]pyrimidine-6-carboxamide]
IC50 [1]: 20 to 100 µM | IC50 [2]: 20 to 250 µM

Cc1[nH]c2c(-c3ccccc3)c(C(F)(F)F)nn2c(=O)c1-c1nnc(-c2cccc(O)n2)o1 [Compound D1086, 6-(5-(6-hydroxypyridin-2-yl)-1,3,4-oxadiazol-2-yl)-5-methyl-3-phenyl-2-(trifluoromethyl)pyrazolo[1,5-a]pyrimidin-7(4H)-one]
IC50 [1]: > 100 µM | IC50 [2]: < 20 µM

COc1cc(C(N)=O)cc2oc(-c3c(C)[nH]c4c(-c5ccccc5)c(C(F)(F)F)nn4c3=O)nc12 [Compound C1149, 4-methoxy-2-(5-methyl-7-oxo-3-phenyl-2-(trifluoromethyl)-4,7-dihydropyrazolo[1,5-a]pyrimidin-6-yl)benzo[d]oxazole-6-carboxamide]
IC50 [1]: 20 to 100 µM | IC50 [2]: < 20 µM

COc1cccc2nc(-c3c(C)[nH]c4c(-c5ccccc5)c(C(F)(F)F)nn4c3=O)[nH]c(=O)c12 [Compound C1024, 5-methoxy-2-(5-methyl-7-oxo-3-phenyl-2-(trifluoromethyl)-4,7-dihydropyrazolo[1,5-a]pyrimidin-6-yl)quinazolin-4(3H)-one]
IC50 [1]: 20 to 100 µM | IC50 [2]: < 20 µM

COc1cccc(CS(=O)(=O)NC(=O)c2c(C)[nH]c3c(-c4ccccc4)c(C(F)(F)F)nn3c2=O)c1 [Compound A1132, N-((3-methoxybenzyl)sulfonyl)-5-methyl-7-oxo-3-phenyl-2-(trifluoromethyl)-4,7-dihydropyrazolo[1,5-a]pyrimidine-6-carboxamide]
IC50 [1]: 20 to 100 µM | IC50 [2]: < 20 µM

COCc1nc(-c2c(C)[nH]c3c(-c4ccccc4)c(C(F)(F)F)nn3c2=O)oc1C(C)C [Compound C1153, 6-(5-isopropyl-4-(methoxymethyl)oxazol-2-yl)-5-methyl-3-phenyl-2-(trifluoromethyl)pyrazolo[1,5-a]pyrimidin-7(4H)-one]
IC50 [1]: 20 to 100 µM | IC50 [2]: < 20 µM

Cc1[nH]c2c(-c3ccccc3)c(C(F)(F)F)nn2c(=O)c1-c1nc2ccccc2[nH]1 [Compound C1005, 6-(1H-benzo[d]imidazol-2-yl)-5-methyl-3-phenyl-2-(trifluoromethyl)pyrazolo[1,5-a]pyrimidin-7(4H)-one]
IC50 [1]: > 100 µM | IC50 [2]: 20 to 250 µM

Cc1[nH]c2c(-c3ccccc3)c(C(F)(F)F)nn2c(=O)c1-c1nc2c(o1)CCCC2 [Compound C1015, 5-methyl-3-phenyl-6-(4,5,6,7-tetrahydrobenzo[d]oxazol-2-yl)-2-(trifluoromethyl)pyrazolo[1,5-a]pyrimidin-7(4H)-one]
IC50 [1]: < 20 µM | IC50 [2]: > 250 µM

Cc1[nH]c2c(-c3ccccc3)c(C(F)(F)F)nn2c(=O)c1C(=O)Nc1ccccc1S(=O)(=O)C(C)C [Compound A1051, N-(2-(isopropylsulfonyl)phenyl)-5-methyl-7-oxo-3-phenyl-2-(trifluoromethyl)-4,7-dihydropyrazolo[1,5-a]pyrimidine-6-carboxamide]
IC50 [1]: 20 to 100 µM | IC50 [2]: < 20 µM

COc1cccc2oc(-c3c(C)[nH]c4c(-c5ccc(F)cc5)c(C(F)(F)F)nn4c3=O)nc12 [Compound C1107, 3-(4-fluorophenyl)-6-(4-methoxybenzo[d]oxazol-2-yl)-5-methyl-2-(trifluoromethyl)pyrazolo[1,5-a]pyrimidin-7(4H)-one]
IC50 [1]: < 20 µM | IC50 [2]: > 250 µM

Cc1[nH]c2c(-c3ccccc3)c(C(F)(F)F)nn2c(=O)c1C(=O)Nc1nccs1 [Compound A1028, 5-methyl-7-oxo-3-phenyl-N-(thiazol-2-yl)-2-(trifluoromethyl)-4,7-dihydropyrazolo[1,5-a]pyrimidine-6-carboxamide]
IC50 [1]: 20 to 100 µM | IC50 [2]: < 20 µM

Cc1[nH]c2c(-c3ccccc3)c(C(F)(F)F)nn2c(=O)c1-c1nnc(C2(C)CCCC2)o1 [Compound D1023, 5-methyl-6-(5-(1-methylcyclopentyl)-1,3,4-oxadiazol-2-yl)-3-phenyl-2-(trifluoromethyl)pyrazolo[1,5-a]pyrimidin-7(4H)-one]
IC50 [1]: > 100 µM | IC50 [2]: < 20 µM

Cc1[nH]c2c(-c3ccccc3)c(C(F)(F)F)nn2c(=O)c1-c1nc2c(N(C)C)cccc2o1 [Compound C1078, 6-(4-(dimethylamino)benzo[d]oxazol-2-yl)-5-methyl-3-phenyl-2-(trifluoromethyl)pyrazolo[1,5-a]pyrimidin-7(4H)-one]
IC50 [1]: < 20 µM | IC50 [2]: < 20 µM

Cc1[nH]c2c(-c3ccccc3)c(C#N)nn2c(=O)c1-c1nc2c(N(C)C)cccc2o1 [Compound C1272, 6-(4-(dimethylamino)benzo[d]oxazol-2-yl)-5-methyl-7-oxo-3-phenyl-4,7-dihydropyrazolo[1,5-a]pyrimidine-2-carbonitrile]
IC50 [1]: < 20 µM | IC50 [2]: < 20 µM

Cc1[nH]c2c(-c3ccccc3)c(C(F)(F)F)nn2c(=O)c1C(=O)Nc1nc(C(C)C)co1 [Compound A1048, N-(4-isopropyloxazol-2-yl)-5-methyl-7-oxo-3-phenyl-2-(trifluoromethyl)-4,7-dihydropyrazolo[1,5-a]pyrimidine-6-carboxamide]
IC50 [1]: 20 to 100 µM | IC50 [2]: 20 to 250 µM
